Experimental data taken from US20250282749A1 (Tango Therapeutics, Inc., priority 2022, published 2025).

Assays:
Assay type in all cases: cell-based
[1] = system: HAP1 MTAP-deleted cell line; assay: viability assay for the MTAP-deleted cell line; conditions: Homo sapiens
[2] = system: PRMT5 (SDMA) in HAP1 MTAP-deleted cell line; assay: SDMA in-cell western assay, HAP1 MTAP-deleted cell line; conditions: for IC50 / IC90: Homo sapiens, SDMA in-cell western, HAP1 MTAP-deleted (MTAP-null) cell line; for Hap1 MTAP intact/deleted ratio: ratio of SDMA in-cell western IC50 in HAP1 MTAP-intact to IC50 in HAP1 MTAP-deleted cell line
Text: (§1) HAP1 MTAP-intact is a cell line in which endogenous levels of MTAP are expressed, and HAP1 MTAP-deleted is an MTAP-null cell line.

[3] = system: PRMT5 (SDMA) in HAP1 MTAP-intact cell line; assay: SDMA in-cell western assay, HAP1 MTAP-intact cell line; conditions: Homo sapiens, HAP1 MTAP-intact cell line (endogenous MTAP), read-out: Hap 1 MTAP intact IC50
Text: as §1

| Compound | IC50 [2] | IC90 [2] | IC50 [3] | IC50 [1] | Hap1 MTAP intact/deleted ratio [2] |
| --- | --- | --- | --- | --- | --- |
| Cc1ccc([C@H]2CN(C(=O)C3(C(F)(F)F)CC3)[C@H](C)CN2C(=O)C(=O)Nc2cnc(N)c(C)c2)cc1 [Compound 128, N-(6-amino-5-methylpyridin-3-yl)-2-((2S,5R)-5-methyl-2-(p-tolyl)-4-(1-(trifluoromethyl)cyclopropanecarbonyl)piperazin-1-yl)-2-oxoacetamide] | 5 to 50 nM | 75 to 125 nM | > 50 nM | < 100 nM | B (an IC50 ratio greater than or equal to 15 fold but lower than 30 fold) |
| C[C@@H]1CN(C(=O)C(=O)Nc2cncc3cn[nH]c23)[C@@H](c2ccc(F)cc2)CN1C(=O)OC(C)(C)C [Compound 129, (2R,5S)-tert-butyl 4-(2-((1H-pyrazolo[4,3-c]pyridin-7-yl)amino)-2-oxoacetyl)-5-(4-fluorophenyl)-2-methylpiperazine-1-carboxylate] | 5 to 50 nM | > 125 nM | > 50 nM | 100 to 1000 nM | A (an IC50 ratio greater than or equal to 30 fold) |
| CC(C)C(=O)N1C[C@H](c2cccc(Cl)c2)N(C(=O)C(=O)Nc2cnc(N)c(C3CC3)c2)C[C@H]1C [Compound 133, N-(6-amino-5-cyclopropylpyridin-3-yl)-2-((2S,5R)-2-(3-chlorophenyl)-4-isobutyryl-5-methylpiperazin-1-yl)-2-oxoacetamide] | 5 to 50 nM | < 75 nM | > 50 nM | < 100 nM | B (an IC50 ratio greater than or equal to 15 fold but lower than 30 fold) |
| Cc1cc(NC(=O)C(=O)N2C[C@@H](C)N(C(=O)C(C)(C)CN3CCN(C)CC3)C[C@@H]2c2ccccc2)cnc1N [Compound 134] | 5 to 50 nM | > 125 nM | 5 to 50 nM | < 100 nM | C (an IC50 ratio of less than 15 fold) |
| Cc1cc(NC(=O)C(=O)N2C[C@@H](C)N(C(=O)C3(C(F)(F)F)CC3)C[C@@H]2c2cccc(C(F)(F)F)c2)cnc1N [Compound 137, N-(6-amino-5-methylpyridin-3-yl)-2-((2S,5R)-5-methyl-4-(1-(trifluoromethyl)cyclopropanecarbonyl)-2-(3-(trifluoromethyl)phenyl)piperazin-1-yl)-2-oxoacetamide] | 5 to 50 nM | > 125 nM | > 50 nM | < 100 nM | B (an IC50 ratio greater than or equal to 15 fold but lower than 30 fold) |
| Cc1cc(NC(=O)C(=O)N2C[C@@H](C)N(C(=O)C3(C(F)(F)F)CC3)C[C@@H]2c2ccsc2)cnc1N [Compound 138, N-(6-amino-5-methyl-3-pyridyl)-2-[(2S,5R)-5-methyl-2-(3-thienyl)-4-[1-(trifluoromethyl)cyclopropanecarbonyl]piperazin-1-yl]-2-oxo-acetamide] | 5 to 50 nM | > 125 nM | > 50 nM | < 100 nM | A (an IC50 ratio greater than or equal to 30 fold) |
| C[C@@H]1CN(C(=O)C(=O)Nc2cncc3cn[nH]c23)[C@@H](c2ccc(N3CCN(C)CC3)cc2)CN1C(=O)C(C)(C)C [Compound 142, 2-((2S,5R)-5-methyl-2-(4-(4-methylpiperazin-1-yl)phenyl)-4-pivaloylpiperazin-1-yl)-2-oxo-N-(1H-pyrazolo[4,3-c]pyridin-7-yl)acetamide] | 5 to 50 nM | < 75 nM | > 50 nM | < 100 nM | C (an IC50 ratio of less than 15 fold) |
| Cc1cc(NC(=O)C(=O)N2C[C@@H](C)N(C(=O)C3(C)CC3)C[C@@H]2c2ccccc2)cnc1N [Compound 143, N-(6-amino-5-methylpyridin-3-yl)-2-((2S,5R)-5-methyl-4-(1-methylcyclopropanecarbonyl)-2-phenylpiperazin-1-yl)-2-oxoacetamide] | 5 to 50 nM | > 125 nM | > 50 nM | < 100 nM | C (an IC50 ratio of less than 15 fold) |
| CCc1cc(NC(=O)C(=O)N2C[C@@H](C)N(C(=O)OC(C)(C)C)C[C@@H]2c2ccc(F)cc2)cnc1N [Compound 145, (2R,5S)-tert-butyl 4-(2-((6-amino-5-ethylpyridin-3-yl)amino)-2-oxoacetyl)-5-(4-fluorophenyl)-2-methylpiperazine-1-carboxylate] | 5 to 50 nM | < 75 nM | > 50 nM | < 100 nM | B (an IC50 ratio greater than or equal to 15 fold but lower than 30 fold) |
| CCc1cc(NC(=O)C(=O)N2C[C@@H](C)N(C(=O)C3(C(F)(F)F)CC3)C[C@@H]2c2cccc(C(F)(F)F)c2)cnc1N [Compound 150, N-(6-amino-5-ethylpyridin-3-yl)-2-((2S,5R)-5-methyl-4-(1-(trifluoromethyl)cyclopropanecarbonyl)-2-(3-(trifluoromethyl)phenyl)piperazin-1-yl)-2-oxoacetamide] | 5 to 50 nM | > 125 nM | > 50 nM | < 100 nM | A (an IC50 ratio greater than or equal to 30 fold) |
| CCC(=O)N1C[C@H](c2ccc(F)cc2)N(C(=O)C(=O)Nc2cnc(N)c(C3CC3)c2)C[C@H]1C [Compound 153] | 5 to 50 nM | > 125 nM | > 50 nM | 100 to 1000 nM | B (an IC50 ratio greater than or equal to 15 fold but lower than 30 fold) |
| Cc1cc(NC(=O)C(=O)N2C[C@@H](C)N(CC(C)C)C[C@@H]2c2ccc(F)cc2)cnc1N [Compound 154, N-(6-amino-5-methyl-3-pyridyl)-2-[(2S,5R)-2-(4-fluorophenyl)-4-isobutyl-5-methyl-piperazin-1-yl]-2-oxo-acetamide] | > 50 nM | > 125 nM | > 50 nM | > 1000 nM | C (an IC50 ratio of less than 15 fold) |

The next lines start with results.

| IC50 [2] | IC90 [2] | IC50 [3] | Compound | IC50 [1] | Hap1 MTAP intact/deleted ratio [2] |
| --- | --- | --- | --- | --- | --- |
| < 5 nM | < 75 nM | 5 to 50 nM | CCc1cc(NC(=O)C(=O)N2C[C@@H](C)N(C(=O)C(C)(C)C)C[C@@H]2c2ccc(N3CCN(C)CC3)cc2)cnc1N [Compound 130, N-(6-amino-5-ethylpyridin-3-yl)-2-((2S,5R)-5-methyl-2-(4-(4-methylpiperazin-1-yl)phenyl)-4-pivaloylpiperazin-1-yl)-2-oxoacetamide] | < 100 nM | C (an IC50 ratio of less than 15 fold) |
| < 5 nM | 75 to 125 nM | > 50 nM | Cc1cc(NC(=O)C(=O)N2C[C@@H](C)N(C(=O)C3(C(F)(F)F)CC3)C[C@@H]2c2ccc(Cl)cc2)cnc1N [Compound 131, N-(6-amino-5-methylpyridin-3-yl)-2-((5R)-2-(4-chlorophenyl)-5-methyl-4-(1-(trifluoromethyl)cyclopropanecarbonyl)piperazin-1-yl)-2-oxoacetamide] | 100 to 1000 nM | C (an IC50 ratio of less than 15 fold) |
| < 5 nM | < 75 nM | 5 to 50 nM | CCc1cc(NC(=O)C(=O)N2C[C@@H](C)N(C(=O)C3(C(F)(F)F)CC3)C[C@@H]2c2ccc(N3CCN(C)CC3)cc2)cnc1N [Compound 132, N-(6-amino-5-ethylpyridin-3-yl)-2-((2S,5R)-5-methyl-2-(4-(4-methylpiperazin-1-yl)phenyl)-4-(1-(trifluoromethyl)cyclopropanecarbonyl)piperazin-1-yl)-2-oxoacetamide] | < 100 nM | C (an IC50 ratio of less than 15 fold) |
| < 5 nM | 75 to 125 nM | > 50 nM | C[C@@H]1CN(C(=O)C(=O)Nc2cnc(N)c3cn[nH]c23)[C@@H](c2ccc(F)cc2)CN1C [Compound 135] | 100 to 1000 nM | A (an IC50 ratio greater than or equal to 30 fold) |
| < 5 nM | < 75 nM | 5 to 50 nM | CCc1cc(NC(=O)C(=O)N2C[C@@H](C)N(C(=O)C3(C(F)(F)F)CC3)C[C@@H]2c2ccc(F)c(Cl)c2)cnc1N [Compound 139, N-(6-amino-5-ethylpyridin-3-yl)-2-((2S,5R)-2-(3-chloro-4-fluorophenyl)-5-methyl-4-(1-(trifluoromethyl)cyclopropanecarbonyl)piperazin-1-yl)-2-oxoacetamide] | < 100 nM | B (an IC50 ratio greater than or equal to 15 fold but lower than 30 fold) |
| < 5 nM | < 75 nM | 5 to 50 nM | CCc1cc(NC(=O)C(=O)N2C[C@@H](C)N(C(=O)C(C)(C)C)C[C@@H]2c2ccccc2)cnc1N [Compound 140, N-(6-amino-5-ethylpyridin-3-yl)-2-((2S,5R)-5-methyl-2-phenyl-4-pivaloylpiperazin-1-yl)-2-oxoacetamide] | < 100 nM | C (an IC50 ratio of less than 15 fold) |
| < 5 nM | > 125 nM | > 50 nM | C[C@@H]1CN(C(=O)C(=O)Nc2cncc3[nH]ncc23)[C@@H](c2ccccc2)CN1C(=O)C1(C)CC1 [Compound 147, 2-((2S,5R)-5-methyl-4-(1-methylcyclopropanecarbonyl)-2-phenylpiperazin-1-yl)-2-oxo-N-(1H-pyrazolo[3,4-c]pyridin-4-yl)acetamide] | 100 to 1000 nM | A (an IC50 ratio greater than or equal to 30 fold) |
| < 5 nM | 75 to 125 nM | 5 to 50 nM | C[C@@H]1CN(C(=O)C(=O)Nc2cnc(N)c(C3CC3)c2)[C@@H](c2ccc(F)cc2)CN1C(=O)C(C)(C)C [Compound 152, N-(6-amino-5-cyclopropylpyridin-3-yl)-2-((2S,5R)-2-(4-fluorophenyl)-5-methyl-4-pivaloylpiperazin-1-yl)-2-oxoacetamide] | < 100 nM | C (an IC50 ratio of less than 15 fold) |
